In PMC3948622, “Docking, Synthesis and Antiproliferative Activity of N-Acylhydrazone Derivatives Designed as Combretastatin A4 Analogues” (PLoS ONE, 2014):
Converted amounts (≈) assume the structure as drawn.

Tests used:
[1] = tested on: NCI-H358M (pulmonary bronchio-alveolar carcinoma); experiment: In vitro antiproliferative MTT assay, NCI-H358M; assay type: cell-based
[2] = tested on: MDA-MB435 (melanoma); experiment: In vitro antiproliferative MTT assay, MDA-MB435; assay type: cell-based
Protocol: (§1) The antiproliferative activity of compounds 5a–r was determined based on an MTT assay and using CA-4 as standard against the tumor cell lines: HL-60 (human leukemia), SF-295 (human glioblastoma), MDA-MB435 (melanoma), PC3M (prostate cancer), OVCAR-8 (ovaries adenocarcinoma), NCI-H258M (pulmonary bronchio-alveolar carcinoma) and HCT-8 (adenocarcinoma ileocecal) (Table 2). To determine the selectivity index of compounds 5a–r, their antiproliferative profile was also evaluated toward human lymphocytes (Table 2).
(§2) Compounds (0.009–5 µg/mL) were tested for cytotoxic activity against selected cancer cell lines: SF-295 (glioblastoma), HCT-8 (colon), MDAMB-435 (melanoma), HL60 (leukemia), PC3M (prostate cancer), OVCAR-8 (ovaries adenocarcinoma) and NCI-H258M (pulmonary bronchio-alveolar carcinoma). All cell lines were kindly obtained from the National Cancer Institute (Bethesda, MD, USA).Tumor cell proliferation was quantified through the ability of living cells to reduce the yellow dye 3-(4,5-dimethyl-2-thiazolyl)-2,5-diphenyl-2H-tetrazolium bromide (MTT, Sigma Aldrich)) to a purple formazan product and absorbance was measured at 595 nm (DTX-880, Beckman Coulter).

[3] = tested on: tubulin; experiment: Tubulin polymerization assay (CEREP); assay type: biochemical; details: single concentration C = 30 µM; vinblastine as positive control
Protocol: The tubulin polymerization assay was performed by CEREP® employing a single concentration of 5b (C = 30 µM), using vinblastine as positive control. In this assay, LASSBio-1586 (5b) inhibited 91% of the tubulin polymerization, validating the rational design employed in the molecular design of the derivatives 5a–r (data not shown; available in the supplementary information, Figure S1).
The tubulin polymerization assay was performed by CEREP®, as described by Bonne and co-workers.

[4] = tested on: OVCAR-8 (ovaries adenocarcinoma); experiment: In vitro antiproliferative MTT assay, OVCAR-8; assay type: cell-based
Protocol: as §1, §2

[5] = tested on: HL-60 (human leukemia); experiment: In vitro antiproliferative MTT assay, HL-60; assay type: cell-based
Protocol: as §1, §2

[6] = tested on: SF-295 (glioblastoma); experiment: Hollow Fiber Assay (HFA), SF-295 fibers s.c. in mice; assay type: in vivo, BALB/c nude mice; details: 4 days; for Proliferation (OD595 nm) SF-295: mean ± S.E.M.
Protocol: Cell culture of SF-295 (glioblastoma) and HCT-116 (colon carcinoma) was performed in RPMI 1640 medium supplemented with 10% fetal bovine serum, 2 mM glutamine, at 37°C with 5% CO2.
Polyvinylidene fluoride (PVDF) HFs with a 1-mm internal diameter and a molecular weight cutoff point of 500 kDa were used (Spectrum Laboratories, Houston, TX). The fibers were cut into pieces 12–15 cm long, washed 2× with sterile distilled water and kept in sterile conditions.
Before use, under sterile conditions, the fibers were incubated in complete RPMI with 20% fetal bovine serum (FBS) overnight (packaging time). Cell viability was assessed by trypan blue exclusion assay. Then, a cell suspension of 7.0×10^6 cell/mL at 4°C was injected into the fiber, with the ends thereof immediately heat-sealed. The fibers were cut into 2 cm each, transferred to petri plates and incubated in complete RPMI medium for 24 h prior to implantation in mice. Each cell was injected into one fiber of a different color (HCT-116, yellow fibers; SF-295, blue fibers).
Each animal received 2 fibers at s.c. site. All incisions were sealed with a surgical stapler.
Tumor cell proliferation was quantified through the ability of living cells to reduce the yellow dye 3-(4,5-dimethyl-2-thiazolyl)-2,5-diphenyl-2H-tetrazolium bromide (MTT, Sigma Aldrich) to a purple formazan product. For this purpose, the fibers removed from animals were incubated with MTT 1 mg/mL in 6-well plates during 4 h at 37°C, 5% CO2 and 95% humidity. The MTT solution was aspirated; fibers were washed with saline solution containing protamine sulphate 2.5% and incubated in protamine solution overnight at 4°C. Fibers were transferred to 24 well plates, cut into 2 or 3 pieces and put to dry. The formazan was dissolved in […] of DMSO, aliquots (150 uL) were transferred to 96 well plates and absorbance was measured at 595 nm (DTX-880, Beckman Coulter).

[7] = tested on: SF-295 (human glioblastoma); experiment: In vitro antiproliferative MTT assay, SF-295; assay type: cell-based
Protocol: as §1, §2

[8] = Aqueous solubility assay by ultraviolet spectroscopy; assay type: physicochemical; details: water (saturated aqueous solution), thermodynamic from solid, 2 hours at 37°C, read-out: Aq. Solubility
Protocol: Ultraviolet spectroscopy was performed using Femto spectrophotometer. The wavelength used in solubility assay was determined by the -λ max characteristic of each compound. Spectra were analyzed in Femtoscan software. Mass spectrometry was obtained by positive ionization at Bruker AmaZon SL and data analyzed in Compass 1.3.SR2 software.
The solubility assay was performed considering the absorptivity of compounds in ultraviolet spectroscopy as described by Schneider and coworkers. The assay wavelength was determined by the λ max characteristic of each compound.
Saturated aqueous solutions were prepared (0.01 mg/mL) and were kept under stirring for 2 hours at 37°C. The supernatant was filtered in 0,45 µm filters and transferred to a quartz cuvette (10 mm) to spectra acquisition.
Solubility was determined by linear regression using as graph plots, solutions prepared by dilutions of the original solution in methanol. The data were obtained in triplicates and the mean values were used to the graph plots. The correlation coefficient (R^2) values were between 0.9972 and 0.9999.

[9] = IC50 for human lymphocytes/IC50 for cancer cell line
[10] = SI of 5b relative to SI of CA-4

For `COc1cc(C(=O)N/N=C/c2ccccc2)cc(OC)c1OC` [Compound 5b, (E)-N′benzylidene-3,4,5-trimetoxybenzohydrazide], the “SI Lymphocyte/ NCI-H358M” value [1, 9] was 4.05±0.25, the IC50 ([1]; NCI-H358M, Table 2, MTT) was 350 nM and the “comparative selectivity index (CA-4 vs 5b) NCI-H258M” value [1, 10] was 9.5. The “SI Lymphocyte/ MDA-MB345” value [2, 9] was 20.07±0.93, the “comparative selectivity index (CA-4 vs 5b) MDA-MB435” value [2, 10] was 42 and the “inhibition of tubulin polymerization” value [3] was 91%. The IC50 ([4]; Homo sapiens, OVCAR-8, Table 2, MTT) was 290 nM, the “SI Lymphocyte/ OVCAR-8” value [4, 9] was 4.39±0.21 and the “comparative selectivity index (CA-4 vs 5b) OVCAR-8” value [4, 10] was 0.5. For the same compound, the IC50 ([5]; Homo sapiens, HL-60, Table 2, MTT) was 290 nM, the “SI Lymphocyte/ HL-60” value [5, 9] was 4.11±0.39 and the “Inhibition (%) SF-295” value ([6]; 25 mg/kg/day intraperitoneally) was 61.89%. The “Proliferation (OD595 nm) SF-295” value ([6]; 25 mg/kg/day intraperitoneally) was 0.57±0.05 OD595 nm, the “Inhibition (%) SF-295” value ([6]; 50 mg/kg/day intraperitoneally) was 72.68% and the “Proliferation (OD595 nm) SF-295” value ([6]; 50 mg/kg/day intraperitoneally) was 0.41±0.06 OD595 nm. The IC50 ([7]; Homo sapiens, SF-295, Table 2, MTT, read-out: IC50 SF295) was 260 nM, the “SI Lymphocyte/ SF-295” value [7, 9] was 4.88±0.42 and the “comparative selectivity index (CA-4 vs 5b) SF-295” value [7, 10] was 13. It also gave a solubility at 2 h [8] of 39.5 µg/mL (≈ 126 µM).
